From patent US7160898B2, “Pharmacological treatment for sleep apnea” (Board of Trustees of The University of Illinois, priority 2002, dated 2007)
Entries after “also recorded” stand apart in the source; their conditions may differ.

Experiments:
[1] = test system: 5-hydroxytryptamine receptors; conditions: anesthetized animals; cited from earlier work
sleep/wake architecture = assay: Sleep/wake architecture after 5-HT and GR38032F (Example 3); assay type: in vivo, rat (Sprague-Dawley); conditions: i.p.
Procedure: Sleep and waking states were assessed using the biparietal EEG and nuchal EMG signals on 10-second epochs as described by Bennington et al. [Sleep, 17:28–36 (1994)]. This software discriminated wakefulness (W) as a high frequency low amplitude EEG with a concomitant high EMG tone, NREM sleep by increased spindle and […] activity together with decreased EMG tone, and REM sleep by a […] activity and an absence of EMG tone. Sleep efficiency was measured as the percentage of total recorded epochs staged as NREM or REM sleep.
Each animal was recorded on four occasions, with recordings for an individual animal separated by at least three days. Fifteen minutes prior to each recording, each animal received (via intraperitoneal injection), in random order, one of the following: (a) saline solution (control); (b) 0.79 mg/kg serotonin; (c) 0.1 mg/kg GR38032F plus 0.79 mg/kg serotonin; or (d) 0.1 mg/kg GR38032F. For the GR38032F+serotonin test group, 0.1 mg/kg GR38032F was administered at time 09:30 followed by 0.79 mg/kg serotonin at time 09:45. Polygraphic recordings were made from 10:00–16:00.
Respiration BP, EEG, and EMG data were determined and recorded via the experimental procedure as specifically set forth above in Example 2. As in Example 2, sleep apneas, defined as cessation of respiratory effort for at least 2.5 s, were scored for each recording session and were associated with the stage in which they occurred: NREM or REM sleep. The duration requirement of 2.5 s represents at least two “missed” breaths, which is analogous to a 10-s apnea duration requirement in humans.
The effects of sleep stage (NREM vs REM) and injection (control vs. administration of either serotonin alone, GR38032F+serotonin, or GR38032F alone) on apnea indexes, respiratory pattern, BP, and HP were tested using analysis of variance (ANOVA) with repeated measures. Multiple comparisons were controlled using Fisher's protected least-significance difference (PLSD). One-way ANOVA was also performed by nonparametric (Kruskal-Wallis) analysis. Conclusions using parametric and nonparametric ANOVA were identical in all cases.

[2] = test system: normalized minute ventilation; assay: Plethysmographic minute ventilation after GR38032F (Example 2); assay type: in vivo, rat (Sprague-Dawley); conditions: 1 mg/kg i.p., 6 recording hours, vs control; hydrochloride, dihydrate
Procedure: Physiological parameters (see below) from each animal were recorded on 2 occasions in random order, with recordings for an individual animal separated for at least 3 days. Fifteen minutes prior to each recording each animal received a systemic injection (1 ml/kg intraperitoneal bolus injection) of either saline (control) or 1 mg/kg of ondansetron (GR38032F; 1,2,3,9-tetrahydro-9-methyl-3-[(2-methylimidazol-1-yl)methyl]carbazole-4-one, hydrochloride, dihydrate; Glaxo Wellcome, Inc., Research Triangle Park, N.C.). Polygraphic recordings were made from hours 10:00–16:00.
Respiration was recorded by placing each animal, unrestrained, inside a single chamber plethysmograph (PLYUNIR/U; Buxco Electronics, Sharon, Conn.; dimension 6 in.×10 in.×6 in.) ventilated with a bias flow of fresh room air at a rate of 2 L/min. […]
An accepted physiological animal model [rat; Monti, et al., Pharamcol. […] More specifically, sleep apneas, defined as cessation of respiratory effort for at least 2.5 seconds, were scored for each recording session and were associated with the stage of sleep in which they occurred: NREM or REM sleep. […] The events detected represent central apneas because decreased ventilation associated with obstructed or occluded airways would generate an increased plethysmographic signal, rather than a pause. […]

[3] = percent recording time, 6 hours, 5-HT 0.79 mg/kg, GR38032F 0.1 mg/kg, mean ± SE

Cc1nccn1CC1CCc2c(c3ccccc3n2C)C1=O.Cl.O.O (stereo not drawn) [GR38032F, 1,2,3,9-tetrahydro-9-methyl-3-[(2-methylimidazol-1-yl)methyl]carbazole-4-one, hydrochloride, dihydrate]
antagonism of agonist-induced transient apnea [1]: significantly antagonized
effect on sleep architecture (sleep/wake architecture; 6 hours of polygraphic recording): had no effect on sleep architecture
% NREM (sleep/wake architecture; [3]): 63.4 ± 5.7%
% REM (sleep/wake architecture; [3]): 7.3 ± 2.3%
% Wakefulness (sleep/wake architecture; [3]): 28.8 ± 6.4%
normalized minute ventilation during W, NREM and REM sleep [2]: significantly larger; also recorded: significant stimulation of ventilation during all behavioral states
